How the values were obtained:
[1] = system: Cryptococcus bhutanensis, Sensitive Strain (against zaragozic Acid A); assay: Antifungal bioassay, zone of inhibition, sensitive strain (against zaragozic acid A); assay type: cell-based; details: yeast nitrogen based medium, 28° C., 2 to 3 days
Procedure: (§1) The antifungal activity of the compound I was determined with a bioassay such as Cryptococcus bhutanensis FD 23971. A ten-day-old slant of C. bhutanensis was washed with 10 ml of sterile water, and 300 μl of the suspension was mixed with an assay medium consisting of 0.67% of yeast nitrogen based medium (DIFCO) and 0.5% of glucose. 150 ml of the warm medium was poured onto a sterile, polystyrene bioassay plate (245×245×20 mm) and was left to solidify. The solid medium was bored into well-separated wells with a size #2 cork bore, and 25 μl of whole broth or extracted broth was spotted into the wells. The plates were incubated at 28° C. for 2 to 3 days and the zone of inhibition was measured.
(§2) The zones of inhibition against Cryptococcus bhutanensis on a yeast nitrogen based medium are as follows: […]

[2] = system: Cryptococcus bhutanensis, Resistant Strain; assay: Antifungal bioassay, zone of inhibition, resistant strain; assay type: cell-based; details: yeast nitrogen based medium, 28° C., 2 to 3 days
Procedure: as §1, §2

squalene synthase = target: T1, squalene synthase (Homo sapiens, UniProt P37268); assay: Squalene Synthase Inhibition Assay; assay type: biochemical; details: microsomal protein, 30 minutes at 37° C., pH 7.4
T1 sequence (P37268 1-417): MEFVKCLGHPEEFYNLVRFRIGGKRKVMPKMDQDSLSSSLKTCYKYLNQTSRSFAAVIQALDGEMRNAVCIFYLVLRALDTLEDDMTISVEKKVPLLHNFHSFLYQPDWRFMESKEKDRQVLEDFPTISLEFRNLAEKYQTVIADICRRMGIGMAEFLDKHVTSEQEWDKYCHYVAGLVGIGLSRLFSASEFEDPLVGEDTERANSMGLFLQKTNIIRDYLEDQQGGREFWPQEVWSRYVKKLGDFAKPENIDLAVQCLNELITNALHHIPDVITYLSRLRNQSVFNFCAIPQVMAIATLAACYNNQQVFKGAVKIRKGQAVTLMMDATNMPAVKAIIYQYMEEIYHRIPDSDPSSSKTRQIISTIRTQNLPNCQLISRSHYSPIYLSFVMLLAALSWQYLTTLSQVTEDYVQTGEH
Procedure: The squalene synthase inhibition assay was conducted in a final volume of 75 μl. The reaction is initiated by addition of 25 μl of the diluted and deoxygenated microsomal suspension to a mixture of 47 μl of the deoxygenated SQS substrate/cofactor solution and 3 μl of the deoxygenated test compound solution as set out in Table 6.
Glucose-6-phosphate 0.95 U
The microsomal suspensions were diluted to a microsomal protein concentration of 1 mg/ml and deoxygenated by repetitive cycles of evacuation and airation with nitrogen. […] Control incubations received 3 μl of deoxygenated dimethyl sulfoxide and enzyme blanks received 25 μl of deoxygenated PMED buffer (50 mM K2 PO4 (pH=7.4), 5 mM MgCl2, 1 mM EDTA, 5 mM dithiothreitol). Assay tubes were immediately flushed with nitrogen and capped, and the solution was vortexed gently. Following 30 minutes of incubation at 37° C., reactions were terminated by addition of 40 μl of 10M sodium hydroxide. […] The region of the chromatogram from 1 cm below the squalene band (visualized with iodine vapors) to the top of the chromatogram was removed and counted in a liquid scintillation counter using Aquasol-2 liquid scintillation fluid. […]
SQS activity (overall reaction) is calculated as pmoles of [3H] squalene formed from [1-3H] […]

ras farnesyltransferase = target: T2, ras farnesyltransferase (Rattus norvegicus, UniProt Q02293+Q04631); assay: ras Farnesyltransferase inhibition assay; assay type: biochemical; details: rat brain cytosol, H-ras 4 μM, 30 minutes at 37° C., pH 7.5
T2 construct: diluted rat brain cytosol; from tissue; host or cells: rat brain cytosol
Procedure: The ras farnesyltransferase inhibition assay was conducted in a final volume of 25 μL. The reaction is initiated by addition of 10 μpL of the diluted rat brain cytosol to a mixture of 15 μL of the ras farnesyltransferase substrate/cofactor solution and 0.3 μL of test compound solution as set out in Table 7.
The rat brain cytosols were diluted to a protein concentration of 3.0 mg/mL. Test compound solutions were prepared in dimethyl sulfoxide at concentrations of 25 mM (final assay concentration 300 μM). Control incubations received 0.3 μL of dimethyl sulfoxide and enzyme blanks received 10 μL rat brain homogenization buffer (50 mM tris HCl (pH=7.5), 5 mM dithiothreitol, 0.2M KCl, 20 μM ZnCl2). After a 30 minute incubation at 37° C., the reaction was terminated by addition of 200 μL of 10% (v/v) HCl in EtOH. After an additional 15 minute incubation at 37° C., 300 μl absolute EtOH were added and the entire sample was applied to a filtration well of a Packard Unifilter-GF/B 96-well plate under vacuum. After complete sample addition, the filter well was washed four times with 500 μl each of absolute ethanol and allowed to dry. The bottom of the Unifilter-GF/B plate was then sealed, 50 μl Microscint-20 liquid scintillation fluid were added to each well and the plate was heat-sealed and then counted in a Packard Top-Count liquid scintillation counter.
ras Farnesyltransferase Assay […]

[3] = system: ras protein farnesylation; details: background statement; cited from earlier work

| Compound | zone of inhibition [1] | zone of inhibition [2] | IC50 (squalene synthase) | IC50 (ras farnesyltransferase) | inhibition of farnesylation of ras protein [3] |
| --- | --- | --- | --- | --- | --- |
| C/C=C/CCCCC[C@@H]1C=C2[C@]3(CC(=O)O)CC4=C(C(=O)OC4=O)[C@H]([C@H]1C[C@@H](O)C(=O)CC/C=C/C)[C@@]2(O)OC3=O [Fraction 5 compound] | 15 mm | 22 mm | 48 µM | 6 µM |  |
| C=C(CC[C@]12O[C@H](C(=O)O)[C@@](O)(C(=O)O)[C@](C(=O)O)(O1)[C@H](OC(=O)/C=C/[C@@H](C)C[C@@H](C)CC)[C@H]2O)[C@@H](OC(C)=O)[C@H](C)Cc1ccccc1 [Zaragozic acid A, reference compound] |  |  |  | 3 µM | inhibit farnesylation of ras protein |
| C/C=C/CCCCC[C@@H]1C=C2[C@]3(CC(=O)O)CC4=C(C(=O)OC4=O)[C@@H]4[C@H]1C[C@H](C(=O)CC/C=C/C)O[C@]24OC3=O [CP-263,114] | 42 mm | 45 mm |  |  |  |

From patent publication US5430055A, “Inhibitor of squalene synthase” (Pfizer Inc., priority 1994, dated 1995)
